According to article PMC11997307, “Rat Sarcoma (RAS)-Protein-Targeting Synthetic Cell-Penetrating Peptide as an Anticancer Biomaterial” (Biomaterials Research, 2025):

Experiments:
[1] = test system: phospho-c-RAF and phospho-ERK1/2 in HT-29 cells; assay: Western blot of RAS-MAPK pathway, HT-29; format: cell-based, human; details: HT-29, 10-250 μM RBP 6 h then 50 ng/ml EGF 10 min
Method: (§1) Protein expression was confirmed via Western blot analysis. Briefly, 9 × 10^5 cells were cultured in 100-mm-diameter dishes. When they reached 90% confluence, the cells were starved for 18 h in serum-free medium. […] At the end of the culture period, the cells were lysed for 20 min in cold lysis buffer on ice. Protein concentration was measured using bicinchoninic acid protein assays (Thermo Fisher Scientific, MA, USA). Equal aliquots of protein (40 μg) were boiled for 7 min in 5× sample buffer and separated by 10% SDS–PAGE. Proteins were transferred onto nitrocellulose membranes, followed by washing with Tris-buffered saline (TBS) containing 0.1% Tween 20 (TBST). The membranes were then blocked for 60 min at room temperature with 5% skim milk in TBST. Following the washing procedure, the membranes were incubated with primary antibodies (RAS, phospho-ERK1/2, ERK1/2, phospho-RAF proto-oncogene serine/threonine-protein kinase [phospho-c-RAF; S338], c-RAF [Cell Signaling Technology, Beverly, MA, USA], and GAPDH [Santa Cruz Biotechnology, Inc., Santa Cruz, CA, USA]) diluted in TBST containing 5% skim milk at 4 °C for 18 h. […] The membranes were subsequently washed 3 more times, and protein bands were detected using chemiluminescence reagents (West Pico PLUS, Thermo Fisher Scientific, USA).

[2] = test system: phospho-c-RAF and phospho-ERK1/2 in MDA-MB-231 cells; assay: Western blot of RAS-MAPK pathway, MDA-MB-231; format: cell-based, human; details: MDA-MB-231, 10-250 μM RBP 6 h then 50 ng/ml EGF 10 min
Method: as §1

[3] = test system: MDA-MB-231 cell-derived tumors; format: in vivo
Method: Fertilized white leghorn eggs, sourced from the Société Française de Production Avicole (St. Brieuc, France), were incubated for 9 d at 37.5 °C with 50% relative humidity. On embryonic day 9 (E9), a small hole was drilled into the air sac to lower the chorioallantoic membrane (CAM), and a 1-cm^2 window was created in the eggshell above the CAM. The MDA-MB-231 cell line was cultivated in DMEM supplemented with 10% FBS (and 1% penicillin/streptomycin). Cells (at 90% confluency, passages 30 to 32) were detached from culture plates with trypsin/EDTA, rinsed with complete medium, and suspended in graft medium. An inoculum of 1 × 10^6 cells was added onto the CAM of each egg. The eggs were randomly assigned to groups. On day 10 (E10), tumors were detectable. They were then treated every 2 d for 9 d (E11, E13, E15, and E17); specifically, 100 μl of the vehicle or 100 μl of the peptide (10 mg/kg) was added dropwise to the tumor. Angiogenesis was estimated by calculating the number of vessels on the CAM that irrigated tumors. Because tumors generated from MDA-MB-231 cells are hemorrhagic, images were obtained at E16 (2 d before collection to ensure that all vessels in the CAM were visible). On day 18 (E18), the upper portion of the CAM containing the tumor was removed, washed in PBS, and then directly transferred to paraformaldehyde (for 48 h for fixation). The tumors were then carefully removed from normal CAM tissue and weighed. The extent of treatment toxicity was evaluated according to the number of dead embryos after 9 d of treatment and observation of visible macroscopic abnormalities at the end point.
In parallel, a 1-cm^2 portion of the lower CAM was collected to evaluate the number of metastatic cells. Genomic DNA was extracted from the CAM and analyzed for human Alu sequences via quantitative polymerase chain reaction (qPCR) with specific primers. Calculation of the Cq for each sample, the mean Cq, and the number of metastases for each group were performed with the Bio-Rad CFX Maestro software (Bio-Rad, Hercules, CA, USA). According to the real-time PCR data markup language data standard (http://www.rdml.org), Cq is defined as the cycle at which the amplification curve […] (fractional PCR cycles). The Cq value is obtained in the exponential phase, where the qPCR curve is linear. This is the basic result of qPCR: lower Cq values indicate higher initial copy numbers of the target gene. When the PCR efficiency is 100%, a difference of 1 cycle between 2 reactions means that there are 2 times more copies (genes) in the reaction with the lower Cq value than in the reaction with the higher Cq value. One-way analysis of variance (ANOVA) with post hoc tests was performed on the data.
On day 18 (E18), 5 tumor samples per group (different from the tumor samples used for tumor weight determination) were collected to evaluate the infiltration of immune cells. Each tumor sample was cut to a small size (<0.5 cm^3) and kept in 5 volumes of RNAlater solution at 4 °C. The extracted RNA was analyzed via reverse transcription qPCR with specific primers for chicken CD3 and CD4 sequences. The Bio-Rad CFX Maestro software was used to calculate the Cq values for each sample, determine the mean Cq, and quantify the relative expression of immune cell markers in each group.
Three tumors per group were harvested and fixed in 4% formaldehyde, washed, and then stored in 70% ethanol until needed for experiments. The tumors were cut to a standard size and placed in an embedding cassette. The paraffin blocks were sectioned at a thickness of approximately 3 to 5 μm. The cells were placed on a glass slide, stained with hematoxylin and eosin (H&E) and Ki-67, and covered in an automated machine. Pictures were taken via a microscope (Olympus BX60, serial no. 7D04032, Shinjuku, Japan) at a magnification of ×4 and a microscope camera (Olympus DP73, serial no. OH05504, Shinjuku, Japan). […]

MDA-MB-231 cells = assay: Tumor colony forming assay; format: cell-based, human; details: MDA-MB-231, 0, 1, 10, 50, 100 or 200 μM RBP, 5 d, crystal violet
Method: MDA-MB-231 cells were plated in 24-well culture plates at a density of 1 × 10^3 cells per well and incubated for 24 h at 37 °C in a humidified incubator with 5% CO2. […] The cells were fixed with Carnoy’s fixative (75% methanol and 25% acetic acid) for 5 min at room temperature and stained with 0.4% crystal violet for 5 min. After staining, the cells were rinsed with distilled water, and images were taken.

[4] = test system: phospho-c-RAF and phospho-ERK1/2 in HCT-116 cells; assay: Western blot of RAS-MAPK pathway, HCT-116; format: cell-based, human; details: HCT-116, 10-250 μM RBP 6 h then 50 ng/ml EGF 10 min
Method: as §1

[5] = chicken egg CAM tumors, 10 mg/kg, E18, 5 tumors per group, normalized to GAPDH

C[C@@H](O)[C@H](NC(=O)[C@H](CO)NC(=O)[C@H](CS)NC(=O)[C@H](CCCCN)NC(=O)CN)C(=O)N[C@@H](CCCNC(=N)N)C(=O)NCC(=O)N[C@@H](CCCNC(=N)N)C(=O)N[C@@H](CCCCN)C(=O)N[C@@H](CS)C(=O)N[C@@H](CS)C(=O)N[C@@H](CCCNC(=N)N)C(=O)N[C@@H](CCCNC(=N)N)C(=O)N[C@@H](CCCCN)C(=O)N[C@@H](CCCCN)C(N)=O [RBP]
RAF activation [1]: did not inhibit
ERK1/2 phosphorylation ([1]; n = 3): did not inhibit
activation of RAF (phospho-c-RAF) [2]: effectively inhibited
phosphorylation of ERK1/2 ([2]; p-ERK/ERK, n = 3): effectively inhibited
Ki-67 expression in tumor sections (IHC) ([3]; chicken egg CAM tumors, 10 mg/kg): reduced Ki-67 expression
infiltration of CD3-positive immune cells in tumors (chicken CD3 mRNA, RT-qPCR) [3, 5]: increased infiltration
infiltration of CD4-positive immune cells in tumors (chicken CD4 mRNA, RT-qPCR) [3, 5]: increased infiltration
formation of microvessels ([3]; chicken egg CAM, 10 mg/kg, E16): significantly suppressed
metastasis of MDA-MB-231 cells to lower CAM (human Alu qPCR) ([3]; chicken egg CAM, 10 mg/kg, E18, P < 0.01 vs Neg Ctrl): significantly inhibited
number of vessels reaching and feeding the tumors ([3]; chicken egg CAM, 10 mg/kg, images at E16, P < 0.05 vs Neg Ctrl): significantly reduced
average tumor weight ([3]; chicken egg CAM, MDA-MB-231, 10 mg/kg at E11, E13, E15, E17, collected E18, mean ± SD, P < 0.01 vs Neg Ctrl (54.40 ± 12.22 mg)): 22.10 ± 5.86 mg
embryo mortality compared to negative control ([3]; in vivo, 10 mg/kg): no statistically significant difference
colony area (MDA-MB-231 cells): dose-dependent decrease in colony area
activation of RAF (phospho-c-RAF) [4]: effectively inhibited
phosphorylation of ERK1/2 ([4]; p-ERK/ERK, n = 3): effectively inhibited
